Measured values reported in ChEMBL document CHEMBL1201862, “PubChem BioAssay data set” (2004).
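Step 1: Grow cells in 96-well plates. Step 2: Expose to compound for 48 hours at 5 concentrations. Step 3: Interpolate endpoints linearly; if unreached, use highest concentration. GI50 = concentration required for 50% inhibition of growth.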 Activity calls are given as the source filed them. No stated cut-off is given here; in the data, active = GI50 up to about 1.1 µM and inactive = higher.

Legend:
Test in all cases: DTP human tumour cell line panel, 48 h
HCC 2998 = tested on: HCC 2998
OVCAR-5 = tested on: OVCAR-5
UACC-257 = tested on: UACC-257
SNB-75 = tested on: SNB-75
BT-549 = tested on: BT-549
Hs-578T = tested on: Hs-578T
KM12 = tested on: KM12
K562 = tested on: K562
786-0 = tested on: 786-0
A498 = tested on: A498
RXF 393 = tested on: RXF 393
M14 = tested on: M14
U-251 = tested on: U-251
TK-10 = tested on: TK-10
UO-31 = tested on: UO-31
SW-620 = tested on: SW-620
NCI-H460 = tested on: NCI-H460
NCI-H522 = tested on: NCI-H522
HT-29 = tested on: HT-29
SK-OV-3 = tested on: SK-OV-3

Row | Structure (SMILES) | GI50 (HCC 2998) | GI50 (OVCAR-5) | GI50 (UACC-257) | GI50 (SNB-75) | GI50 (BT-549) | GI50 (Hs-578T) | GI50 (KM12) | GI50 (K562) | GI50 (786-0) | GI50 (A498) | GI50 (RXF 393) | GI50 (M14) | GI50 (U-251) | GI50 (TK-10) | GI50 (UO-31) | GI50 (SW-620) | GI50 (NCI-H460) | GI50 (NCI-H522) | GI50 (HT-29) | GI50 (SK-OV-3)
1 | COc1ccc(-c2cc(-c3ccco3)c(C#N)c(=S)n2C2OC(CO)C(O)C(O)C2O)cc1 (stereo not given) | 25 µM (inactive) | > 100 µM (inactive) | > 100 µM (inactive) | > 100 µM (inactive) | > 100 µM (inactive) | > 100 µM (inactive) | > 100 µM (inactive) | > 100 µM (inactive) | > 100 µM (inactive) | > 100 µM (inactive) | > 100 µM (inactive) | 52 µM (inactive) | 82.8 µM (inactive) | > 100 µM (inactive) | > 100 µM (inactive) | > 100 µM (inactive) | > 100 µM (inactive) | > 100 µM (inactive) | > 100 µM (inactive) | 1.57 µM (inactive)
2 | S=c1nc2[nH]c3ccc(Br)cc3c2n[nH]1 | > 100 µM (inactive) | > 100 µM (inactive) | 62.5 µM (inactive) | 40.4 µM (inactive) | 50.2 µM (inactive) | 28.9 µM (inactive) | 29.2 µM (inactive) | 47.8 µM (inactive) | 35.2 µM (inactive) | > 100 µM (inactive) | > 100 µM (inactive) | 51.5 µM (inactive) | 53.2 µM (inactive) | > 100 µM (inactive) | 72.8 µM (inactive) | 53 µM (inactive) | 63.1 µM (inactive) | 24.3 µM (inactive) | 35 µM (inactive) | > 100 µM (inactive)
3 | CCOC(=O)/C(C#N)=C/c1ccc2c(-c3c(OCC)ccc4cc(/C=C(\C#N)C(=O)OCC)ccc34)c(OCC)ccc2c1 | > 100 µM (inactive) | > 100 µM (inactive) | > 100 µM (inactive) | > 100 µM (inactive) | > 100 µM (inactive) | > 100 µM (inactive) | > 100 µM (inactive) | > 100 µM (inactive) | > 100 µM (inactive) | > 100 µM (inactive) | > 100 µM (inactive) | 15.7 µM (inactive) | > 100 µM (inactive) | > 100 µM (inactive) | > 100 µM (inactive) | > 100 µM (inactive) | > 100 µM (inactive) | > 100 µM (inactive) | > 100 µM (inactive) | > 100 µM (inactive)
4 | COc1ccc(/C(CCl)=C(\Nc2ccccc2)c2ccc(OC)c(OC)c2)cc1OC | > 100 µM (inactive) | > 100 µM (inactive) | > 100 µM (inactive) | > 100 µM (inactive) | > 100 µM (inactive) | > 100 µM (inactive) | > 100 µM (inactive) | 58.3 µM (inactive) | > 100 µM (inactive) | > 100 µM (inactive) | 36.1 µM (inactive) | > 100 µM (inactive) | > 100 µM (inactive) | > 100 µM (inactive) | 46.5 µM (inactive) | > 100 µM (inactive) | 82.6 µM (inactive) | 94 µM (inactive) | > 100 µM (inactive) | > 100 µM (inactive)
5 | COc1cc2nc3n(c(=O)c2cc1OC)-c1ccc([N+](=O)[O-])cc1C3=O | > 100 µM (inactive) | > 100 µM (inactive) | 60.5 µM (inactive) | 85.1 µM (inactive) | > 100 µM (inactive) | > 100 µM (inactive) | 80.2 µM (inactive) | 31.5 µM (inactive) | 56.8 µM (inactive) | 17.5 µM (inactive) | 20.3 µM (inactive) | 52.1 µM (inactive) | 46.7 µM (inactive) | 61.7 µM (inactive) | 11.8 µM (inactive) | 11.3 µM (inactive) | 68.4 µM (inactive) | 25.5 µM (inactive) | > 100 µM (inactive) | > 100 µM (inactive)
6 | C/C1=C\[C@H](C)C[C@H](C)OC(=O)[C@H](C)NC(=O)[C@@H](Cc2ccc(O)c(Br)c2)N(C)C(=O)[C@H](C)NC(=O)[C@@H](C)C1 | 0.00408 µM (active) | 10.7 µM (inactive) | 0.0927 µM (active) | 0.0184 µM (active) | 0.132 µM (active) | 0.094 µM (active) | 0.731 µM (active) | 0.0836 µM (active) | 0.00752 µM (active) | 0.0149 µM (active) | 0.0656 µM (active) | 0.118 µM (active) | 0.00991 µM (active) | 0.0724 µM (active) | 0.0538 µM (active) | 0.00385 µM (active) | 0.00701 µM (active) | 0.0149 µM (active) | 0.00783 µM (active) | 0.0495 µM (active)
7 | C=C(CN(C)C)C(=O)c1ccc(OC)cc1 | 14.2 µM (inactive) | 13.6 µM (inactive) | 5.31 µM (inactive) | 15.5 µM (inactive) | 6.56 µM (inactive) | 15.5 µM (inactive) | 14.5 µM (inactive) | 0.622 µM (active) | 1.72 µM (inactive) | 9.79 µM (inactive) | 10 µM (inactive) | 2.5 µM (inactive) | 10.3 µM (inactive) | 2.24 µM (inactive) | 2.55 µM (inactive) | 0.771 µM (active) | 21.8 µM (inactive) | 0.267 µM (active) | 5.71 µM (inactive) | 24.7 µM (inactive)
